What was measured:
[1] = target: T1, Endonuclease III-like protein 1 (Homo sapiens) (UniProt P78549); conditions: Hit No;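 also: enzyme assay tracking NTHL1 cutting and release of a quenched double-stranded DNA oligo substrate, read as fluorescence at 594 nm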
T1 sequence (whole entry): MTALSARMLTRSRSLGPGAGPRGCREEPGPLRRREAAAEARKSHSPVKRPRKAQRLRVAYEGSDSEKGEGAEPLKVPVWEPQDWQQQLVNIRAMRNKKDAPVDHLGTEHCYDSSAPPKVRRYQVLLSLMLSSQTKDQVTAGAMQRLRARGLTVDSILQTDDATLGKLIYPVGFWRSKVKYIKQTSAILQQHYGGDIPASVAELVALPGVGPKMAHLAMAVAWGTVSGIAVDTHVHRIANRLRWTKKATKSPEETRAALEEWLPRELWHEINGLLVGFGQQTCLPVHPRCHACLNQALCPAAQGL
Description: Inhibition of NTHL1 by quantifying inhibition of NTHL1-mediated cleavage and dissociation of quenched duplex DNA oligonucleotides, measured as fluorescence at 594 nm.

[2] = target: T2, Endonuclease 8-like 2 (Homo sapiens) (UniProt Q969S2); conditions: Hit No;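 also: fluorescence at 594 nm reports NEIL2 cutting and release of a quenched double-stranded DNA oligo substrate, reduced signal read as inhibition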
T2 sequence (whole entry): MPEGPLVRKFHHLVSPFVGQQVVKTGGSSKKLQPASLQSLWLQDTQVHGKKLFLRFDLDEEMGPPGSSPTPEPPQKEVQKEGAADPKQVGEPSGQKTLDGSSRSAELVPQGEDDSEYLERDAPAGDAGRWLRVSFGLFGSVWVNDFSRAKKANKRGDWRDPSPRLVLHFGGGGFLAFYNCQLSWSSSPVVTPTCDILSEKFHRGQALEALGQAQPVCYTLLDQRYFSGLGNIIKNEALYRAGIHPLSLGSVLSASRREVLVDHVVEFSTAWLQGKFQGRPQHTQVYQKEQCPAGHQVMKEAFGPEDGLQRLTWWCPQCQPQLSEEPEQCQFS
Description: Inhibition of NEIL2 by quantifying inhibition of NEIL2-mediated cleavage and dissociation of quenched duplex DNA oligonucleotides, measured as fluorescence at 594 nm.

[3] = target: N-glycosylase/DNA lyase (Homo sapiens) (UniProt O15527); conditions: Compound Concentration 10.0 uM, Hit No;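 also: OGG1 cleavage of a quenched duplex DNA oligonucleotide, coupled to APE1 for strand incision, read as fluorescence at 594 nm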
N-glycosylase/DNA lyase (Homo sapiens), sequence (O15527 whole entry): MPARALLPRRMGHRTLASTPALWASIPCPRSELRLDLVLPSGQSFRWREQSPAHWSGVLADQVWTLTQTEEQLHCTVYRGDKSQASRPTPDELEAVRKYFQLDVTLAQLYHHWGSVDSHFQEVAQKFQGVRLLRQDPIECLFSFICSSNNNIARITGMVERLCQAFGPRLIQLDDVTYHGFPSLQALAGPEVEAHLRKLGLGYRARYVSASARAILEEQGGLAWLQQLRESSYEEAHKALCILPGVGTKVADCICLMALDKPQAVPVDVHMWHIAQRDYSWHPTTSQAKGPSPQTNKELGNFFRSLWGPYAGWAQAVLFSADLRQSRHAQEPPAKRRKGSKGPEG
Description: Inhibition of OGG1 by quantifying inhibition of OGG1-mediated cleavage and dissociation of quenched duplex DNA oligonucleotides, measured as fluorescence at 594 nm. To generate a functional strand incision and increase turn-over this assay is coupled to APE1.

[4] = target: Endonuclease 8-like 1 (Homo sapiens) (UniProt Q96FI4); conditions: Hit No;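 also: fluorescence at 594 nm from quenched duplex DNA oligonucleotides released by NEIL1 cleavage and strand separation, reported as reduction of this enzyme activity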
Endonuclease 8-like 1 (Homo sapiens), sequence (Q96FI4 whole entry): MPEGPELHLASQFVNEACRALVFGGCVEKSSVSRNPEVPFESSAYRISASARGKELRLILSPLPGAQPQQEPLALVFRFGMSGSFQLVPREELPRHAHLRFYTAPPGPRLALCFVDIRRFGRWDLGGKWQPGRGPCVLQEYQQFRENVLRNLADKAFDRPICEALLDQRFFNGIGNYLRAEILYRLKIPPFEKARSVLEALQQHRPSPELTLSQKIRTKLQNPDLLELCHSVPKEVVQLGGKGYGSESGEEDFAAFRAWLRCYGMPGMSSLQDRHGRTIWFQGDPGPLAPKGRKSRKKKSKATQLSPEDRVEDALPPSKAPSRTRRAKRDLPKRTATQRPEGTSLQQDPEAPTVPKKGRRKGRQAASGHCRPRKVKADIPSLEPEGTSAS
Description: Inhibition of NEIL1 by quantifying inhibition of NEIL1-mediated cleavage and dissociation of quenched duplex DNA oligonucleotides, measured as fluorescence at 594 nm.

[5] = target: G/T mismatch-specific thymine DNA glycosylase (Homo sapiens) (UniProt Q13569); conditions: Hit No;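 also: human TDG cleavage of quenched duplex DNA oligonucleotides coupled to APE1, strand release read as fluorescence at 594 nm, inhibition of TDG activity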
G/T mismatch-specific thymine DNA glycosylase (Homo sapiens), sequence (Q13569 whole entry): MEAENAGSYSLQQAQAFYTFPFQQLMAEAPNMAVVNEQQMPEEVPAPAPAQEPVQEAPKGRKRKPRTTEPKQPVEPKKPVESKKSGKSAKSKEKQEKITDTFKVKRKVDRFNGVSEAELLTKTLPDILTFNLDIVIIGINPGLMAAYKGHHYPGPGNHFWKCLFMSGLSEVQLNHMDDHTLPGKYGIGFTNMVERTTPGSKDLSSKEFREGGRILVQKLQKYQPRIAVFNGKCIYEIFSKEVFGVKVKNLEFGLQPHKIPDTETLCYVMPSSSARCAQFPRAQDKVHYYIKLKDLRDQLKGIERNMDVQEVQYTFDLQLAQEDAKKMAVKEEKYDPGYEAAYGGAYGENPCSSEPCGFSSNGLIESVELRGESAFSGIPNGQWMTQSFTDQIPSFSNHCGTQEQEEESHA
Description: Inhibition of TDG by quantifying inhibition of TDG-mediated cleavage and dissociation of quenched duplex DNA oligonucleotides, measured as fluorescence at 594 nm. To generate a functional strand incision and increase turn-over this assay is coupled to APE1.

[6] = target: Uracil-DNA glycosylase (Homo sapiens) (UniProt P13051); conditions: Hit No;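 also: UNG excision on a quenched double-stranded DNA oligo probe, with APE1 added for strand incision and turnover, read as fluorescence at 594 nm as strands separate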
Uracil-DNA glycosylase (Homo sapiens), sequence (P13051 whole entry): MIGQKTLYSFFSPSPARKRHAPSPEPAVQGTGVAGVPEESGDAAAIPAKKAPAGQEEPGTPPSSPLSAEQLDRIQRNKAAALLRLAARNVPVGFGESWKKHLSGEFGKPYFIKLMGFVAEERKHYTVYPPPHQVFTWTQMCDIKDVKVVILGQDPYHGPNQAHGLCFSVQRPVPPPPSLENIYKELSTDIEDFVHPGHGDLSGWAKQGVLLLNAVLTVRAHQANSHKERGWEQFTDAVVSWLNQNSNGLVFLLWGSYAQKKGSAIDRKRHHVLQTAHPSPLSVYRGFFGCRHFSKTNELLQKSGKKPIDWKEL
Description: Inhibition of UNG by quantifying inhibition of UNG-mediated cleavage and dissociation of quenched duplex DNA oligonucleotides, measured as fluorescence at 594 nm. To generate a functional strand incision and increase turn-over this assay is coupled to APE1.

[7] = target: T3, Single-strand selective monofunctional uracil DNA glycosylase (Homo sapiens) (UniProt Q53HV7); conditions: Hit No;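 also: enzymatic SMUG1 assay coupled with APE1, reading fluorescence at 594 nm released when a quenched double-stranded DNA oligonucleotide substrate is cleaved and separated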
T3 sequence (whole entry): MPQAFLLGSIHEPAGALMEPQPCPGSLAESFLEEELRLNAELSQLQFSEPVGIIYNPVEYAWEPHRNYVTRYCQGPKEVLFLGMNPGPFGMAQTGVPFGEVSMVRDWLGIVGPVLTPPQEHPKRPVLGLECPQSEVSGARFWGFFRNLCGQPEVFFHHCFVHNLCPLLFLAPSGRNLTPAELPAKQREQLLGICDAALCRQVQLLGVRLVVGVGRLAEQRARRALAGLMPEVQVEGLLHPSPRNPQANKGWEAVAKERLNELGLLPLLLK
Description: Inhibition of SMUG1 by quantifying inhibition of SMUG1-mediated cleavage and dissociation of quenched duplex DNA oligonucleotides, measured as fluorescence at 594 nm. To generate a functional strand incision and increase turn-over this assay is coupled to APE1.

Row | SMILES | inhibition ([1]; Compound Concentration 10.0 uM) | inhibition ([2]; Compound Concentration 10.0 uM) | inhibition [3] | inhibition ([4]; Compound Concentration 10.0 uM) | inhibition ([5]; Compound Concentration 10.0 uM) | inhibition ([6]; Compound Concentration 10.0 uM) | inhibition ([7]; Compound Concentration 10.0 uM) | inhibition ([1]; Compound Concentration 1.0 uM) | inhibition ([2]; Compound Concentration 1.0 uM) | inhibition ([7]; Compound Concentration 1.0 uM) | inhibition ([4]; Compound Concentration 1.0 uM) | inhibition ([5]; Compound Concentration 1.0 uM) | inhibition ([6]; Compound Concentration 1.0 uM)
1 | CN1CCN(c2nc(N)c3ccccc3n2)CC1 | 17.1% | 16% | -6.52% | 6.68% | -3.58% | -6.76% |  |  |  |  |  |  | 
2 | CCCn1c(=O)c2[nH]c(C3CCCC3)nc2n(CCC)c1=O | -3.21% | 1.01% | -9.82% | -2.28% | 6.69% |  | -9.38% |  |  |  |  |  | 
3 | O=C1COc2nccc(-c3ccccc3F)c2CN1Cc1cc(C(F)(F)F)cc(C(F)(F)F)c1 | 2.66% | -2.98% | -4.66% | 2.76% |  |  | -3.96% |  |  |  |  |  | 
4 | CCN1CCN(c2ccc(Nc3cc(N(C)C(=O)Nc4c(Cl)c(OC)cc(OC)c4Cl)ncn3)cc2)CC1 |  |  |  |  |  |  |  | 1.48% | -7.84% | 20.5% | -0.787% | 47.5% | 1.97%
5 | Cc1c(-c2cc(-c3ccccc3Cl)no2)cnn1C1CCNCC1 | 12.9% | -0.35% |  | 5.79% | -8.91% | -3.3% | -1.2% |  |  |  |  |  | 
6 | CN(c1ncccc1CNc1ccnc(-c2cc3cc(Cl)ccc3[nH]2)n1)S(C)(=O)=O | -4.79% | 1.85% |  | 8.2% | 37.5% | 1.54% | 14.4% |  |  |  |  |  | 
7 | COCC(=O)NC/C=C/c1ccc2ncnc(Nc3ccc(Oc4ccc(C)nc4)c(C)c3)c2c1 | 1.48% |  | 5.64% | -8.05% | 11.2% | 9.27% | 21.7% |  |  |  |  |  | 
8 | CC[C@@H]1CN(C(=O)NCC(F)(F)F)C[C@@H]1c1cnc2cnc3[nH]ccc3n12 | 2.88% |  | 0.361% | 4.1% | 36.4% | 1.27% | 20.8% |  |  |  |  |  | 
9 | CC(F)(F)CN1CCOc2c(nn(-c3ccccc3Cl)c2-c2ccc(Cl)cc2)C1=O | 14.4% | 4.76% | 1.85% | -3.02% | -6.66% | -4.73% |  |  |  |  |  |  | 
10 | O=C(NCc1ccc(F)cc1)N1CCN2C(=O)OC(c3ccccc3)(c3ccccc3)C2C1 (stereo unspecified) | -0.275% | 9.75% | 1.66% | -1.09% | 6.86% |  | 10.1% |  |  |  |  |  | 
11 | CN1C(=O)[C@@H](NC(=O)c2cc3ccccc3[nH]2)N=C(c2ccccc2)c2ccccc21 | 22.4% |  | -4.56% |  | 4.69% | -5.09% | -0.954% |  |  |  |  |  | 
12 | COc1cc(C)c(Sc2cnc(NC(=O)c3ccc(CNC(C)C(C)(C)C)cc3)s2)cc1C(=O)N1CCN(C(C)=O)CC1 (stereo unspecified) | -3.4% |  |  | -0.787% | 37.6% | 4.76% | 19.5% |  |  |  |  |  | 
13 | CCCC(=O)C1CCN(c2ncnc3c2CN(C(=O)c2ccc(-c4ccccc4)cc2)CC3)CC1 | 12.1% | -0.605% | -4.93% | 0.75% |  | -3.39% |  |  |  |  |  |  | 
14 | FC(F)c1nc2ccccc2n1-c1nc(N2CCOCC2)nc(N2CCOCC2)n1 | 7.06% |  | 3.08% |  | 32.9% | -3.48% | 27% |  |  |  |  |  | 
15 | c1cc(CN2CCCNCCNCCCNCC2)ccc1CN1CCCNCCNCCCNCC1 | 13.7% |  | -2.11% |  | 2.03% |  | 1.47% |  |  |  |  |  | 
16 | CCCCCCCCCCCCC/C=C/[C@@H](O)[C@@H](N)COP(=O)(O)O | -7.6% | 6.5% | 2.2% | 4.69% | -7.17% | -6.96% |  |  |  |  |  |  | 
17 | CC(C)CCC[C@@H](C)[C@H]1CC[C@H]2[C@@H]3[C@H](O)C=C4C[C@@H](O)CC[C@]4(C)[C@H]3CC[C@]12C | -1.74% | -6.22% | -2.82% | 8.25% | -0.558% |  | -3.67% |  |  |  |  |  | 
18 | C=CCN1C[C@H](C)N([C@H](c2ccc(C(=O)N(CC)CC)cc2)c2cccc(O)c2)C[C@H]1C | 1.92% | 6.25% | -6.71% | -6.58% | 4.87% |  | 10.6% |  |  |  |  |  | 
